This note sets out measurements from patent US4668664A (L'Oreal, priority 1985, dated 1987).

The subject of one experiment is P 37 E⊕ (sensitive). Description: Minimal Inhibiting Concentration (MIC) by the dilution method, sensitive strain P 37 E⊕. It is filed as cell-based, propionibacterium acnes. As to conditions: Cutibacterium acnes. The text has this: (§1) This method is described and employed by G. A. Denys et al, Antimicrobial Agents and Chemotherapy (1983), 23, 335-337 and J. J. Leyden et al, J. Am. Acad. Dermatol. (1983) 8 (1) 41-5, and utilizes as the strain of propionibacterium acnes, the P 37 strain furnished by Cunliffe and Holland.
(§2) After display of a standardized inoculum (DO=1.8 to 450 nm) on gelose medium (RCM+furazolidone), in a Petri dish, a disc of 9 mm in diameter is deposited in its center.
The two types of colonies are then retained by pulling away from the gelose medium (sterilized platinum loop):
(§3) (2) at 1 cm beyond the periphery of the inhibition zone the strains denominated P 37 E⊕ are retained.

A further experiment deals with P 37 E⊖ (resistant). Description: Minimal Inhibiting Concentration (MIC) by the dilution method, resistant strain P 37 E⊖. As to conditions: for MIC: Cutibacterium acnes, read-out: Minimal Inhibiting Concentration (MIC), P 37 E⊖ (resistant), dilution method; for relative activity on strain P 37 E⊖: in words, vs reference fatty esters / erythromycin. It is filed as cell-based, propionibacterium acnes. As for the experimental part:
as §1, §2
(§4) After 6 days at 36° C. in an anaerobic medium (GAS-PAK system, B.B.L.) a growth inhibition zone of the strain is clearly visible (total diameter=42 mm), the great majority of the colonies being situated at the periphery of the inhibition zone.
On the other hand, at its interior a few colonies clearly appear.
The two types of colonies are then retained by pulling away from the gelose medium (sterilized platinum loop): […]

In experiment [1] the test system is propionibacterium acnes P 37 strain. Nature of the experiment: Minimal Inhibiting Concentration (MIC) by the dilution method, P 37 strain. The class given is cell-based. As to conditions: Cutibacterium acnes, P37STRAIN.
Source text: as §1

The test system of another experiment is P 37. Description: IC 50 study (inhibiting concentration at 50%), P 37. It is filed as cell-based, propionibacterium acnes. To be noted: Cutibacterium acnes, 50% survivors at constant culture time, read-out: IC 50 (inhibiting concentration at 50%; column head printed MIC).
The test system of a further experiment is P 37 E⊕. Nature of the experiment: IC 50 study (inhibiting concentration at 50%), P 37 E⊕. It is filed as cell-based, propionibacterium acnes. To be noted: Cutibacterium acnes, read-out: IC 50 (inhibiting concentration at 50%; column head printed MIC).
Source text: as §3

A further experiment deals with P 37 E⊖. Nature of the experiment: IC 50 study (inhibiting concentration at 50%), P 37 E⊖. The class given is cell-based, propionibacterium acnes. To be noted: Cutibacterium acnes, read-out: IC 50 (inhibiting concentration at 50%; column head printed MIC).
The subject of a further experiment is P 37 strain. Description: Growth inhibition zone, disc on gelose medium. The class given is cell-based, propionibacterium acnes. To be noted: Cutibacterium acnes, 144 h; read-out: growth inhibition zone, total diameter. As for the experimental part: as §2, §4

The structures appear in SMILES notation. Converted amounts (≈) assume the structure as drawn.

With `CC/C=C\C/C=C\C/C=C\CCCCCCCC(=O)O[C@H]1[C@H](C)O[C@@H](O[C@H]2[C@H](C)[C@@H](O[C@@H]3O[C@H](C)C[C@H](N(C)C)[C@H]3O)[C@](C)(O)C[C@@H](C)C(=O)[C@H](C)[C@@H](O)[C@](C)(O)[C@@H](CC)OC(=O)[C@@H]2C)C[C@@]1(C)OC` [O--α-linolenoyl-4", O-α-linolenoyl-4" erythromycin A], the figures for the MIC in the experiment on P 37 E⊕ (sensitive) and in the experiment on P 37 E⊖ (resistant) were 4.5 µg/mL (≈ 4.53 µM) and 37 µg/mL (≈ 37.2 µM), respectively.

For `CCCCC/C=C\C/C=C\CCCCCCCC(=O)O[C@H]1[C@H](O[C@@H]2[C@@H](C)[C@H](O[C@H]3C[C@@](C)(OC)[C@@H](O)[C@H](C)O3)[C@@H](C)C(=O)O[C@H](CC)[C@@](C)(O)[C@H](O)[C@@H](C)C(=O)[C@H](C)C[C@@]2(C)O)O[C@H](C)C[C@@H]1N(C)C` [O--linolenoyl-2', O-linoleoyl-2' erythromycin A], the MIC was 4 µg/mL (≈ 4.01 µM) in the experiment on P 37 E⊕ (sensitive) and 16 µg/mL (≈ 16.1 µM) with P 37 E⊖ (resistant).

Regarding `CCCCC/C=C\C/C=C\CCCCCCCC(=O)O[C@H]1[C@H](C)O[C@@H](O[C@H]2[C@H](C)[C@@H](O[C@@H]3O[C@H](C)C[C@H](N(C)C)[C@H]3O)[C@](C)(O)C[C@@H](C)C(=O)[C@H](C)[C@@H](O)[C@](C)(O)[C@@H](CC)OC(=O)[C@@H]2C)C[C@@]1(C)OC` [O--linoleoyl-4", O-linoleoyl-4" erythromycin A], the values for the MIC in the experiment with P 37 E⊕ (sensitive) and in the experiment on P 37 E⊖ (resistant) were 3.5 µg/mL (≈ 3.51 µM) and 28 µg/mL (≈ 28.1 µM), respectively.

On to `CCCCC/C=C/C/C=C/CCCCCCCC(=O)O[C@H]1[C@H](O[C@@H]2[C@@H](C)[C@H](O[C@H]3C[C@@](C)(OC)[C@@H](O)[C@H](C)O3)[C@@H](C)C(=O)O[C@H](CC)[C@@](C)(O)[C@H](O)[C@@H](C)C(=O)[C@H](C)C[C@@]2(C)O)O[C@H](C)C[C@@H]1N(C)C` [O--linoelaidoyl-2', O-linoelaidoyl-2' erythromycin A], for which the MIC in the experiment on P 37 E⊕ (sensitive) was 25 µg/mL (≈ 25.1 µM); with P 37 E⊖ (resistant), 100 µg/mL (≈ 100 µM). Moreover, the “relative activity on strain P 37 E⊖” value with P 37 E⊖ (resistant) is given as “less active”.

With `CC[C@H]1OC(=O)[C@H](C)[C@@H](O[C@H]2C[C@@](C)(OC)[C@@H](O)[C@H](C)O2)[C@H](C)[C@@H](O[C@@H]2O[C@H](C)C[C@H](N(C)C)[C@H]2O)[C@](C)(O)C[C@@H](C)C(=O)[C@H](C)[C@@H](O)[C@]1(C)O` [Erythromycin, erythromycin A], the MIC in experiment [1] is 0.78 µg/mL (≈ 1.06 µM); with P 37 E⊕ (sensitive), 0.78 µg/mL (≈ 1.06 µM); with P 37 E⊖ (resistant), above 50 µg/mL. Further, the “Minimal Inhibiting Concentration (MIC)” value in the experiment on P 37 E⊖ (resistant) (P 37 E⊖ (resistant), dilution method) was 50 µg/mL. The IC50 was 50 µg/mL (≈ 68.1 µM) with P 37, 5 µg/mL (≈ 6.81 µM) in the experiment with P 37 E⊕ and around 100 µg/mL (≈ 136 µM) in the experiment on P 37 E⊖. In addition, the zone of inhibition at 50 µg/disc in the experiment on P 37 strain was found to be 42 mm.

In the case of `CCCCCCCC/C=C\CCCCCCCC(=O)O[C@H]1[C@H](O[C@@H]2[C@@H](C)[C@H](O[C@H]3C[C@@](C)(OC)[C@@H](O)[C@H](C)O3)[C@@H](C)C(=O)O[C@H](CC)[C@@](C)(O)[C@H](O)[C@@H](C)C(=O)[C@H](C)C[C@@]2(C)O)O[C@H](C)C[C@@H]1N(C)C` [O--oleoyl-2'], the MIC in the experiment on P 37 E⊕ (sensitive) stood at 50 µg/mL (≈ 50.1 µM); with P 37 E⊖ (resistant) it was 100 µg/mL (≈ 100 µM).

Turning to `CCCCCCCCCCCCCCCCCC(=O)O[C@H]1[C@H](O[C@@H]2[C@@H](C)[C@H](O[C@H]3C[C@@](C)(OC)[C@@H](O)[C@H](C)O3)[C@@H](C)C(=O)O[C@H](CC)[C@@](C)(O)[C@H](O)[C@@H](C)C(=O)[C@H](C)C[C@@]2(C)O)O[C@H](C)C[C@@H]1N(C)C` [O--stearoyl-2'], the figures for the MIC against P 37 E⊕ (sensitive) and in the experiment with P 37 E⊖ (resistant) were below 1.56 µg/mL and above 50 µg/mL, respectively.

With `CCCCC/C=C\C/C=C\C/C=C\C/C=C\CCCC(=O)O[C@H]1[C@H](O[C@@H]2[C@@H](C)[C@H](O[C@H]3C[C@@](C)(OC)[C@@H](O)[C@H](C)O3)[C@@H](C)C(=O)O[C@H](CC)[C@@](C)(O)[C@H](O)[C@@H](C)C(=O)[C@H](C)C[C@@]2(C)O)O[C@H](C)C[C@@H]1N(C)C` [O--arachidonoyl-2', O-arachidonoyl-2' erythromycin A], the MIC was 6.25 µg/mL (≈ 6.13 µM) against P 37 E⊕ (sensitive) and above 50 µg/mL in the experiment with P 37 E⊖ (resistant).

For `CCCCC/C=C/C/C=C/CCCCCCCC(=O)O[C@H]1[C@H](C)O[C@@H](O[C@H]2[C@H](C)[C@@H](O[C@@H]3O[C@H](C)C[C@H](N(C)C)[C@H]3O)[C@](C)(O)C[C@@H](C)C(=O)[C@H](C)[C@@H](O)[C@](C)(O)[C@@H](CC)OC(=O)[C@@H]2C)C[C@@]1(C)OC` [O--linoelaidoyl-4", O-linoelaidoyl-4" erythromycin A], the MIC against P 37 E⊕ (sensitive) came out at 25 µg/mL (≈ 25.1 µM). In addition, in the experiment on P 37 E⊖ (resistant), the MIC is 100 µg/mL (≈ 100 µM) and the “relative activity on strain P 37 E⊖” value is on record as “less active”.
